Values belong to the molecule of their own block, whether it stands above or below them.
Columns and labels:
Aβ(1-42) aggregate = target: T1, Aβ(1-42) aggregate (Homo sapiens, UniProt P05067); assay: Binding inhibition experiment using Aβ(1-42) aggregate, Ki values (Example 2); settings: compound numbers of Example 2; for Ki: radioactive ligand [^125I]CL-NMe2, mean ± standard error of 3 experiments (compound 4: 6 experiments), read-out: Ki values calculated by inhibition experiment; for binding affinity for the Aβ(1-42) aggregate: in words, derivatives with two substituents on Ring A
T1 construct: Amyloid β protein (Human, 1-42) [TFA form] was purchased from Peptide Institute, Inc; purchased Peptide Institute, Inc
T1 sequence (P05067 672-713 limits assumed): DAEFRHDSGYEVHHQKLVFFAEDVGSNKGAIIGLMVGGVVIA
Description: As a radioactive iodine-125 (^125I), Iodine-125 (3.7 GBq/mL) manufactured by MP Biomedicals, Inc. was used. Reverse phase HPLC was performed at a flow rate of 1.0 mL/min using a Cosmosil 5C18-AR-II column (4.6×150 mm) manufactured by Nacalai Tesque Inc. and ultrapure water:acetonitrile=3:7 as an elution solvent. ^1HNMR was measured using Varian Gemini 300 and tetramethylsilane as an internal standard substance. Mass spectrometry was performed using JEOL IMS-DX300. Preparative TLC was performed using 12 PLC plates 20×20-cm-Silica gel 60 F254, 2 mm manufactured by MERCK. Amyloid β protein (Human, 1-42) was purchased from Peptide Institute, Inc., and special grade reagents were used as other reagents.
Aβ(1-42) was dissolved in 10 mM phosphate buffer containing 1 mM EDTA (pH 7.4) at a concentration of 0.25 mg/mL, and the mixture was incubated at 37° C. for 42 h to prepare an Aβ(1-42) aggregate.
[…] of 10% EtOH solution, […] of a solution of [^125I]4-diethylamino-4′-iodochalcone ([^125I]CL-NMe2) in 10% ethanol, and […] of a sample solution at various concentrations (0 to 20 mM) were mixed, […] of an Aβ(1-42) aggregate solution was finally added, and the mixture was allowed to stand at room temperature for 3 h. Aβ(1-42) aggregate-bound compounds and nonbound compounds were separated with a Brandel M-24R cell harvester using a Whatman GF/B filter. Radioactivities remaining on the filter after filtration were measured with a γ-counter, and inhibition curves were created using Graph Pad Prism 4.0 to calculate inhibition constants (Ki values).

[1] = In-vivo radioactivity distribution experiment in mice (Reference Example 1); settings: intravenous, mean (standard deviation), Reference Example 1 numbering
Description: A radioactive iodine-labeled compound (Compound 7) was diluted with physiological saline containing 5 to 10% ethanol. Three to five 5-week-old male ddY mice (25 to 30 g) per group were decapitated at 2, 10, 30, or 60 min after intravenous administration of […] (0.5 to 1 μCi) of the labeled compound, blood was collected, organs were removed, and weights and radioactivities thereof were measured.

[2] = In-vivo radioactivity distribution experiment using normal mice (Example 2); settings: normal mice, intravenous, Example 2 numbering
Description: Radioactive iodine labeling compounds were diluted with physiological saline containing 10% EtOH. To each of four or five 5-week-old male ddY mice (20 to 25 g) per group, […] of a labeled compound, [^125I]Compound 7, 10, 13, or 14 (0.2 to 0.4 mCi), was administered from the caudal vein. Animals were decapitated at 2, 10, 30, or 60 min, blood was collected, the major organs were isolated, and then weights and radioactivities thereof were measured.

- Ki (Aβ(1-42) aggregate): 102 ± 15.9 nM
SMILES: O=C(C=Cc1cccs1)c1ccc(I)cc1 [Compound 24 in Example 2, 1-(4-iodophenyl)-3-(2-thienyl)-prop-2-en-1-one]

- Ki (Aβ(1-42) aggregate): > 10000 nM
SMILES: O=C(C=Cc1nccs1)c1ccc(I)cc1 [Compound 27 in Example 2, 1-(4-iodophenyl)-3-(thiazol-2-yl)-prop-2-en-1-one]

- Ki (Aβ(1-42) aggregate): 1130 ± 344 nM
SMILES: CN(C)c1ccc(C=CC(=O)c2ccc(I)cc2)o1 [Compound 31 in Example 2, 1-(4-iodophenyl)-3-(5-dimethylamino-2-furanyl)-prop-2-en-1-one]

- Ki (Aβ(1-42) aggregate): 1610 ± 84.5 nM
SMILES: CN(C)c1ccc(C=CC(=O)c2ccc(I)s2)o1 [Compound 36 in Example 2, 3-(5-dimethylamino-2-furyl)-1-(5-iodo-2-thienyl)-prop-2-en-1-one]

- Ki (Aβ(1-42) aggregate): 113 ± 10.1 nM
SMILES: CN(C)c1ccc(C=CC(=O)c2ccc(I)cc2)s1 [Compound 33 in Example 2, 3-(5-dimethylamino-2-thienyl)-1-(4-iodophenyl)-prop-2-en-1-one]

- Ki (Aβ(1-42) aggregate): 126 ± 12.5 nM
SMILES: CN(C)c1ccc(C=CC(=O)c2ccc(Br)o2)cc1 [Compound 32 in Example 2, 1-(5-bromo-2-furanyl)-3-(4-dimethylaminophenyl)-prop-2-en-1-one]

More lines, now with the values behind:

SMILES: COc1cc(/C=C/C(=O)c2cccc(I)c2)ccc1O [Compound 7 in Reference Example 1, (E)-3-(4-hydroxy-3-methoxyphenyl)-1-(3-iodophenyl)prop-2-en-1-one]
- In-vivo distribution of radioactivity: Blood ([1]; 2 min): 4.90 (0.52) percents of the dose/g
- In-vivo distribution of radioactivity: Brain ([1]; 2 min): 2.52 (0.20) percents of the dose/g
- In-vivo distribution of radioactivity: Heart ([1]; 2 min): 5.58 (0.99) percents of the dose/g
- In-vivo distribution of radioactivity: Intestines ([1]; 2 min): 2.50 (0.31) percents of the dose/g
- In-vivo distribution of radioactivity: Kidneys ([1]; 2 min): 11.99 (3.60) percents of the dose/g
- In-vivo distribution of radioactivity: Liver ([1]; 2 min): 15.71 (1.27) percents of the dose/g
- In-vivo distribution of radioactivity: Spleen ([1]; 2 min): 2.57 (0.42) percents of the dose/g
- In-vivo distribution of radioactivity: Blood ([1]; 10 min): 3.80 (0.91) percents of the dose/g
- In-vivo distribution of radioactivity: Brain ([1]; 10 min): 1.28 (0.17) percents of the dose/g
- In-vivo distribution of radioactivity: Heart ([1]; 10 min): 2.88 (1.02) percents of the dose/g
- In-vivo distribution of radioactivity: Intestines ([1]; 10 min): 10.52 (1.82) percents of the dose/g
- In-vivo distribution of radioactivity: Kidneys ([1]; 10 min): 9.16 (2.76) percents of the dose/g
- In-vivo distribution of radioactivity: Liver ([1]; 10 min): 18.55 (2.68) percents of the dose/g
- In-vivo distribution of radioactivity: Spleen ([1]; 10 min): 1.80 (0.30) percents of the dose/g
- In-vivo distribution of radioactivity: Blood ([1]; 30 min): 1.84 (0.31) percents of the dose/g
- In-vivo distribution of radioactivity: Brain ([1]; 30 min): 0.40 (0.11) percents of the dose/g
- In-vivo distribution of radioactivity: Heart ([1]; 30 min): 1.44 (0.34) percents of the dose/g
- In-vivo distribution of radioactivity: Intestines ([1]; 30 min): 20.60 (6.13) percents of the dose/g
- In-vivo distribution of radioactivity: Kidneys ([1]; 30 min): 5.00 (2.27) percents of the dose/g
- In-vivo distribution of radioactivity: Liver ([1]; 30 min): 7.67 (1.68) percents of the dose/g
- In-vivo distribution of radioactivity: Spleen ([1]; 30 min): 1.03 (0.04) percents of the dose/g
- In-vivo distribution of radioactivity: Blood ([1]; 60 min): 1.15 (0.44) percents of the dose/g
- In-vivo distribution of radioactivity: Brain ([1]; 60 min): 0.35 (0.05) percents of the dose/g
- In-vivo distribution of radioactivity: Heart ([1]; 60 min): 1.38 (0.34) percents of the dose/g
- In-vivo distribution of radioactivity: Intestines ([1]; 60 min): 29.31 (3.26) percents of the dose/g
- In-vivo distribution of radioactivity: Kidneys ([1]; 60 min): 4.31 (0.81) percents of the dose/g
- In-vivo distribution of radioactivity: Liver ([1]; 60 min): 4.05 (0.61) percents of the dose/g
- In-vivo distribution of radioactivity: Spleen ([1]; 60 min): 0.88 (0.15) percents of the dose/g

SMILES: Nc1ccc(C(=O)C=Cc2ccc(Br)s2)cc1 [Compound 44 in Example 2, 3-(5-bromo-2-thienyl)-1-(4-aminophenyl)-prop-2-en-1-one]
- Ki (Aβ(1-42) aggregate): 476 ± 47.9 nM

SMILES: COc1cc(/C=C/C(=O)c2ccc(I)cc2)ccc1O [Compound 40 in Example 2, 4-hydroxy-4′-iodo-3-methoxychalcone]
- binding affinity for the Aβ(1-42) aggregate (Aβ(1-42) aggregate): no compound showed a high binding affinity
- Ki (Aβ(1-42) aggregate): 1160 ± 154 nM

SMILES: CNc1ccc(C=CC(=O)c2ccc(I)cc2)cc1 [CL-NHMe, reference compound]
- Ki (Aβ(1-42) aggregate): 6.3 ± 1.6 nM

SMILES: Nc1ccc(/C=C/C(=O)c2ccc(I)cc2)c(N)c1 [Compound 39 in Example 2, 2,4-diamino-4′-iodochalcone]
- binding affinity for the Aβ(1-42) aggregate (Aβ(1-42) aggregate): no compound showed a high binding affinity

SMILES: CNc1ccc(C(=O)C=Cc2ccc(Br)s2)cc1 [Compound 45 in Example 2, 3-(5-bromo-2-thienyl)-1-(4-methylaminophenyl)-prop-2-en-1-one]
- Ki (Aβ(1-42) aggregate): 198 ± 48.6 nM

SMILES: COc1ccc(/C=C/C(=O)c2ccc(I)cc2)cc1O [Compound 41 in Example 2, 3-hydroxy-4′-iodo-4-methoxychalcone]
- binding affinity for the Aβ(1-42) aggregate (Aβ(1-42) aggregate): no compound showed a high binding affinity
- Ki (Aβ(1-42) aggregate): 157 ± 80.8 nM

SMILES: CNc1ccc(C(=O)/C=C/c2ccc(I)cc2)cc1 [Compound 7 in Example 2, 4-iodo-4′-methylaminochalcone]
- In-vivo radioactivity distribution: blood ([2]; 2 min): 1.76 (0.27) percent of the dose/g
- In-vivo radioactivity distribution: brain ([2]; 2 min): 3.07 (0.57) percent of the dose/g
- In-vivo radioactivity distribution: heart ([2]; 2 min): 5.00 (0.79) percent of the dose/g
- In-vivo radioactivity distribution: intestine ([2]; 2 min): 2.52 (0.81) percent of the dose/g
- In-vivo radioactivity distribution: kidney ([2]; 2 min): 6.20 (0.93) percent of the dose/g
- In-vivo radioactivity distribution: liver ([2]; 2 min): 10.82 (2.61) percent of the dose/g
- In-vivo radioactivity distribution: lung ([2]; 2 min): 11.10 (3.36) percent of the dose/g
- In-vivo radioactivity distribution: pancreas ([2]; 2 min): 4.93 (1.01) percent of the dose/g
- In-vivo radioactivity distribution: spleen ([2]; 2 min): 2.27 (0.48) percent of the dose/g
- In-vivo radioactivity distribution: stomach ([2]; 2 min): 1.06 (0.67) percent of the dose
- In-vivo radioactivity distribution: blood ([2]; 10 min): 1.43 (0.30) percent of the dose/g
- In-vivo radioactivity distribution: brain ([2]; 10 min): 2.03 (0.41) percent of the dose/g
- In-vivo radioactivity distribution: heart ([2]; 10 min): 1.98 (0.24) percent of the dose/g
- In-vivo radioactivity distribution: intestine ([2]; 10 min): 7.78 (1.31) percent of the dose/g
- In-vivo radioactivity distribution: kidney ([2]; 10 min): 4.56 (0.67) percent of the dose/g
- In-vivo radioactivity distribution: liver ([2]; 10 min): 9.42 (1.92) percent of the dose/g
- In-vivo radioactivity distribution: lung ([2]; 10 min): 4.94 (1.73) percent of the dose/g
- In-vivo radioactivity distribution: pancreas ([2]; 10 min): 2.99 (1.70) percent of the dose/g
- In-vivo radioactivity distribution: spleen ([2]; 10 min): 1.47 (0.27) percent of the dose/g
- In-vivo radioactivity distribution: stomach ([2]; 10 min): 0.87 (0.38) percent of the dose
- In-vivo radioactivity distribution: blood ([2]; 30 min): 1.15 (0.57) percent of the dose/g
- In-vivo radioactivity distribution: brain ([2]; 30 min): 0.69 (0.09) percent of the dose/g
- In-vivo radioactivity distribution: heart ([2]; 30 min): 0.98 (0.20) percent of the dose/g
- In-vivo radioactivity distribution: intestine ([2]; 30 min): 17.52 (1.74) percent of the dose/g
- In-vivo radioactivity distribution: kidney ([2]; 30 min): 3.92 (1.05) percent of the dose/g
- In-vivo radioactivity distribution: liver ([2]; 30 min): 6.77 (1.21) percent of the dose/g
- In-vivo radioactivity distribution: lung ([2]; 30 min): 2.22 (0.58) percent of the dose/g
- In-vivo radioactivity distribution: pancreas ([2]; 30 min): 1.04 (0.35) percent of the dose/g
- In-vivo radioactivity distribution: spleen ([2]; 30 min): 0.94 (0.48) percent of the dose/g
- In-vivo radioactivity distribution: stomach ([2]; 30 min): 0.70(0.11) percent of the dose
- In-vivo radioactivity distribution: blood ([2]; 60 min): 1.51 (0.26) percent of the dose/g
- In-vivo radioactivity distribution: brain ([2]; 60 min): 0.40 (0.08) percent of the dose/g
- In-vivo radioactivity distribution: heart ([2]; 60 min): 0.82 (0.14) percent of the dose/g
- In-vivo radioactivity distribution: intestine ([2]; 60 min): 18.47 (2.31) percent of the dose/g
- In-vivo radioactivity distribution: kidney ([2]; 60 min): 4.04 (1.10) percent of the dose/g
- In-vivo radioactivity distribution: liver ([2]; 60 min): 6.01 (1.81) percent of the dose/g
- In-vivo radioactivity distribution: lung ([2]; 60 min): 1.57 (0.23) percent of the dose/g
- In-vivo radioactivity distribution: pancreas ([2]; 60 min): 0.78 (0.16) percent of the dose/g
- In-vivo radioactivity distribution: spleen ([2]; 60 min): 0.71 (0.19) percent of the dose/g
- In-vivo radioactivity distribution: stomach ([2]; 60 min): 1.14 (0.48) percent of the dose

From US20100278733A1, “COMPOSITION FOR DIAGNOSIS OF AMYLOID-RELATED DISEASE” (priority 2007, published 2010)
